Activity calls are given as the source filed them.
What was measured:
[1] = bead-based luminescence quenchers, dual-tagged ARNT – biochemical, AlphaScreen, cherry-pick, artefact control for ARNT-TACC3 interaction inhibitor project, dose response (AID 651705); format: functional;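 also: AlphaScreen bead proximity signal that flags compounds interfering with the detection technology; potency reflects signal decrease which marks the compound as an assay artifact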
[2] = biological target: Adenosylmethionine-8-amino-7-oxononanoate aminotransferase (Mycobacterium tuberculosis, UniProt P9WQ81); test: Mycobacterium tuberculosis BioA enzyme inhibitor Measured in Biochemical System Using Plate Reader - 2163-02_Inhibitor_Dose_CherryPick_Activity.; format: functional, Mycobacterium tuberculosis UT205
Cytochrome P450 2D6 = Cytochrome P450 2D6 (Homo sapiens, UniProt P10635);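 also: CYP2D6 member of a cytochrome P450 panel assay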
Cytochrome P450 1A2 = biological target: T1, Cytochrome P450 1A2 (Homo sapiens, UniProt P05177);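 also: PubChem cytochrome P450 panel assay, CYP1A2 panel member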
T1 sequence (P05177 whole entry): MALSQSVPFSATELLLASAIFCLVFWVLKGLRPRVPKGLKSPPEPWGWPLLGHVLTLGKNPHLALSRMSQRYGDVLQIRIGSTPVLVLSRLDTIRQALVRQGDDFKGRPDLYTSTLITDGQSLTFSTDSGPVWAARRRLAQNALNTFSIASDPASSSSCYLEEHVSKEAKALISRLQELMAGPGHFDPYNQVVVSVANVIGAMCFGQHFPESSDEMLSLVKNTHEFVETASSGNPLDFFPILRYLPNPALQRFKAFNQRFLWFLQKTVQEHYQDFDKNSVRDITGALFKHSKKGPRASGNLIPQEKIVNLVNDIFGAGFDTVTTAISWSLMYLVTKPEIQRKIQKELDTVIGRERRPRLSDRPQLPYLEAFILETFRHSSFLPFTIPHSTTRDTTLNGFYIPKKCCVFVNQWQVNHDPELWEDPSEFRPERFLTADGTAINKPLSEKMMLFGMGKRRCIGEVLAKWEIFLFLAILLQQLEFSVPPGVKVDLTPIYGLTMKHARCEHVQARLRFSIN

Cytochrome P450 3A4 = Cytochrome P450 3A4 (Homo sapiens, UniProt P08684);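 also: CYP3A4 tested as one member of a cytochrome P450 panel screen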
HEK293 = test: EBV LMP1 TES2 canonical NF-kB signalling blockers – cell-based, HEK293, luciferase, cherry-pick, dose response (AID 588343); format: functional; settings: Homo sapiens
[3] = reduction of Shn3 3'UTR-driven luciferase in osteoblasts – cell-based, Clone20 osteoblasts, firefly luciferase, cherry-picked, dose response (AID 624132); format: functional;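 also: firefly luciferase luminescence from reporter carrying the Shn3 3'UTR in osteoblasts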
[4] = loss of viability in HepG2 cells – cell-based, CellTiter-Glo, cherry-picked, cytotoxicity control for Shn3 inhibitor project, dose response (AID 624134); format: functional
[5] = non-specific 3'UTR reporter inhibition in Clone20-Shn3RL – cell-based, Renilla luciferase, cherry-picked, counter-screen for Shn3 inhibitor project, dose response (AID 624133); format: functional
Mu-type opioid receptor = Mu-type opioid receptor (Homo sapiens, UniProt P35372); format: functional, cell-based;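 also: U2OS cells with beta-arrestin recruitment to OPRM1 by beta-gal complementation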
Fatty acid synthase [6] = biological target: T2, Fatty acid synthase (Homo sapiens, UniProt P49327); test: inhibition of human FAS-TE enzyme activity – biochemical, endpoint fluorescence intensity, uHTS hits, dose response (AID 624327); format: functional;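 also: fluorescence from hydrolysis of an O-methyl fluorescein acyl ester substrate by the enzyme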
[7] = biological target: 5-hydroxytryptamine receptor 2A (Mus musculus, UniProt P35363); format: functional, cell-based;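 also: CHO-K1 cells with tagged receptor and beta-arrestin; agonist potency measured as compound-induced activation of the receptor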
Interleukin-8 [8] = biological target: T3, Interleukin-8 (Homo sapiens, UniProt P10145); test: Dose Response confirmation of uHTS small molecule hits for cystic fibrosis induced NFkb Inhibitors in a TNFa-induced IL8 counterscreen.; format: functional; settings: read-out: IC50_Mean
T3 sequence (P10145 whole entry): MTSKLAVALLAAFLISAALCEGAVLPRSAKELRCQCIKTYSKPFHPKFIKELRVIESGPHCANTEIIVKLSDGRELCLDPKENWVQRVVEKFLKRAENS

Interleukin-8 [9] = biological target: T3, Interleukin-8; test: Dose Response confirmation of uHTS small molecule hits for cystic fibrosis induced NFkb Inhibitors in a PAF-induced IL8 counterscreen.; format: functional; settings: read-out: IC50_Mean
Fatty acid synthase [10] = biological target: T2, Fatty acid synthase; test: inhibition of human FAS-TE enzyme activity – biochemical, kinetic fluorescence intensity, dose response (AID 624326); format: functional;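 also: rate of fluorescence rise from hydrolysis of a fluorogenic O-methyl fluorescein ester substrate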
[11] = biological target: T4, Heat shock factor protein 1 (Mus musculus, UniProt P38532); test: decrease of HSF1-responsive luciferase luminescence – cell-based, NIH3T3, dose retest, confirmation (AID 2382); format: functional;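 also: NIH3T3 fibroblasts with HSF1-driven luciferase reporter stressed by proteasome inhibitor MG132; luminescence from HSF1-driven luciferase expression after 8 hours of MG132 stress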
T4 sequence (P38532 whole entry): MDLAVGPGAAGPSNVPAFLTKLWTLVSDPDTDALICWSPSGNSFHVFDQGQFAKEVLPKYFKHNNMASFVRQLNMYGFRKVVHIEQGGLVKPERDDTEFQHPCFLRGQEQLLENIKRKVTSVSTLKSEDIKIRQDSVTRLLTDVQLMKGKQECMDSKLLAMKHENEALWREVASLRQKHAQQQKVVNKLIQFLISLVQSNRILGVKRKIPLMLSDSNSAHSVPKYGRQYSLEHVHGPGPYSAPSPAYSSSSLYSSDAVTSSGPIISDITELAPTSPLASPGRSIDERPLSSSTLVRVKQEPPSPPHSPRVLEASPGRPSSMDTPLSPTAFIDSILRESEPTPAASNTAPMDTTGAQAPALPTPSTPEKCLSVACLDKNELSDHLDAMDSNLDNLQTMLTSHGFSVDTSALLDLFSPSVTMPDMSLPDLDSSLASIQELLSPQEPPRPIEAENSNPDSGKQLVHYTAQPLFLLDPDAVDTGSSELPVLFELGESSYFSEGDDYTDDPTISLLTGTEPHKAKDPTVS

[12] = biological target: Neurotensin receptor type 1 (Homo sapiens, UniProt P30989); format: functional;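 also: Image-based confirmatory dose-response assay measuring agonist activity at NTR1; NTR1-expressing U2OS osteosarcoma cells imaged for beta-arrestin GFP spot formation; agonist potency where compounds increase beta-arrestin recruitment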
[13] = biological target: T5, Replicative DNA helicase DnaB (Mycobacterium tuberculosis, UniProt P9WMR3); test: DnaB intein splicing inhibitors, dose response, biochemical, cell-free fluorescence (AID 449749); format: functional
T5 sequence (P9WMR3 whole entry): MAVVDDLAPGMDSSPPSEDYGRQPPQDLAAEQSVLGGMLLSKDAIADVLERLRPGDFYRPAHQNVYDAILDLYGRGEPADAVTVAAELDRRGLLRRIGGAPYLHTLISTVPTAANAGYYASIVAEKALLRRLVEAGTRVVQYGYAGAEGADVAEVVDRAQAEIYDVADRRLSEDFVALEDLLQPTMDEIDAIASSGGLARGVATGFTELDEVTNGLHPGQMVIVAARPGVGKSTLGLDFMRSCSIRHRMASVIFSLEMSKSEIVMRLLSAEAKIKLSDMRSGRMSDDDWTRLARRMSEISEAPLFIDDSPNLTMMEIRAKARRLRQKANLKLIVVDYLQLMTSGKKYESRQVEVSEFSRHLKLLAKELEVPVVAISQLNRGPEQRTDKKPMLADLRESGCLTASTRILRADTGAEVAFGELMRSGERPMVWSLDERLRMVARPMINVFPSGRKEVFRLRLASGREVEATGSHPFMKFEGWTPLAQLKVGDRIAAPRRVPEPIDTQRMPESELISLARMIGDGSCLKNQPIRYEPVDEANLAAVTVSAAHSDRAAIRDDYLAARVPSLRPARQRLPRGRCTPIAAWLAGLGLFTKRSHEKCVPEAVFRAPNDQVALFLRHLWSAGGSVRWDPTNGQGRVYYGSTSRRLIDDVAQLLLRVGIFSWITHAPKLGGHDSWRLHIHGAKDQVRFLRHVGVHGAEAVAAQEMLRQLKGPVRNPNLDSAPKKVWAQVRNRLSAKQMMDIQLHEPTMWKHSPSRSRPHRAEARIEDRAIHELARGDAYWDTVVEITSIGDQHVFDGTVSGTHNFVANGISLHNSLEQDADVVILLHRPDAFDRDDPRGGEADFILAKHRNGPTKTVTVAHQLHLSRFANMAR

Protein RecA = biological target: T6, Protein RecA (Mycobacterium tuberculosis, UniProt P9WHJ3); test: Fluorescence Cell-Free Homogeneous Dose Retest to Identify Inhibitors of RecA-Intein Splicing Activity. [Related pubchem assays (depositor defined):AID2097, AID2223, AID489010, AID492950]; format: functional
T6 sequence (P9WHJ3 whole entry): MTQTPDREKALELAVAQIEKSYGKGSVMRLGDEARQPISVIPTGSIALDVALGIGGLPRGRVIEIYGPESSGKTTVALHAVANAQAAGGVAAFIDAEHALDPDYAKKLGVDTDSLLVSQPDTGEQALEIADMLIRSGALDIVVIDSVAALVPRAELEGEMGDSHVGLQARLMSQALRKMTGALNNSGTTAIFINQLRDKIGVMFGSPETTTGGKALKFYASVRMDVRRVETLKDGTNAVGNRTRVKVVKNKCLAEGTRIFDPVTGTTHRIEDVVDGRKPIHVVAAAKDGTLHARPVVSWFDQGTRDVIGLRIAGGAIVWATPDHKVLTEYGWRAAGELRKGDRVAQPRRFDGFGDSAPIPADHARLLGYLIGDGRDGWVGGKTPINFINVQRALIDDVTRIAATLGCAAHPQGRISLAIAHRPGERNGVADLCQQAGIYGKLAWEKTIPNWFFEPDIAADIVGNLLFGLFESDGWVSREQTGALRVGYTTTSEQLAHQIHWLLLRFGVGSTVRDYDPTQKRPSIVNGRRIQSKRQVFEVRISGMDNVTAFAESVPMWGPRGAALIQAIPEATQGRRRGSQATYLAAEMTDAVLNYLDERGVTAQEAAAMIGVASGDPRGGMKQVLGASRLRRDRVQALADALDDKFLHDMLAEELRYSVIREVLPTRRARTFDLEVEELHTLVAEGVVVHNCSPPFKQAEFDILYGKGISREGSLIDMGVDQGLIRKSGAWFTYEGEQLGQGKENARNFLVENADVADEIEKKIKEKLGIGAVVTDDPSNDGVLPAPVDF

[14] = Fluorescence-based cell-based high throughput dose response assay for inhibitors of the interaction of nucleotide-binding oligomerization domain containing 2 (NOD2) and the receptor-interacting serine-threonine kinase 2 (RIPK2).; format: functional; settings: Homo sapiens
Beta Lactamase = Beta Lactamase (Pseudomonas aeruginosa, UniProt Q932Y6); test: BLA reporter interference, concentration series – BLA reporter cells, FRET fluorescence, artefact control for NOD2-RIPK2 interaction inhibitor project, dose response (AID 651552); format: functional, cell-based
Beta Lactamase, sequence (Q932Y6 whole entry): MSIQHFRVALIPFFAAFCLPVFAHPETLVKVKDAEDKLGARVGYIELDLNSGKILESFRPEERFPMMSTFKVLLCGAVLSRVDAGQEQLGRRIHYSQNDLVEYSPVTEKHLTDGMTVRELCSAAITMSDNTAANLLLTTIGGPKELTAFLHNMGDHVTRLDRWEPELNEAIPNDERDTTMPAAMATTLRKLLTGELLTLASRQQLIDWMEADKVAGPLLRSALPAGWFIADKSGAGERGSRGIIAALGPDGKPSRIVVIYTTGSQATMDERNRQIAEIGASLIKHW

T2 sequence (P49327 whole entry): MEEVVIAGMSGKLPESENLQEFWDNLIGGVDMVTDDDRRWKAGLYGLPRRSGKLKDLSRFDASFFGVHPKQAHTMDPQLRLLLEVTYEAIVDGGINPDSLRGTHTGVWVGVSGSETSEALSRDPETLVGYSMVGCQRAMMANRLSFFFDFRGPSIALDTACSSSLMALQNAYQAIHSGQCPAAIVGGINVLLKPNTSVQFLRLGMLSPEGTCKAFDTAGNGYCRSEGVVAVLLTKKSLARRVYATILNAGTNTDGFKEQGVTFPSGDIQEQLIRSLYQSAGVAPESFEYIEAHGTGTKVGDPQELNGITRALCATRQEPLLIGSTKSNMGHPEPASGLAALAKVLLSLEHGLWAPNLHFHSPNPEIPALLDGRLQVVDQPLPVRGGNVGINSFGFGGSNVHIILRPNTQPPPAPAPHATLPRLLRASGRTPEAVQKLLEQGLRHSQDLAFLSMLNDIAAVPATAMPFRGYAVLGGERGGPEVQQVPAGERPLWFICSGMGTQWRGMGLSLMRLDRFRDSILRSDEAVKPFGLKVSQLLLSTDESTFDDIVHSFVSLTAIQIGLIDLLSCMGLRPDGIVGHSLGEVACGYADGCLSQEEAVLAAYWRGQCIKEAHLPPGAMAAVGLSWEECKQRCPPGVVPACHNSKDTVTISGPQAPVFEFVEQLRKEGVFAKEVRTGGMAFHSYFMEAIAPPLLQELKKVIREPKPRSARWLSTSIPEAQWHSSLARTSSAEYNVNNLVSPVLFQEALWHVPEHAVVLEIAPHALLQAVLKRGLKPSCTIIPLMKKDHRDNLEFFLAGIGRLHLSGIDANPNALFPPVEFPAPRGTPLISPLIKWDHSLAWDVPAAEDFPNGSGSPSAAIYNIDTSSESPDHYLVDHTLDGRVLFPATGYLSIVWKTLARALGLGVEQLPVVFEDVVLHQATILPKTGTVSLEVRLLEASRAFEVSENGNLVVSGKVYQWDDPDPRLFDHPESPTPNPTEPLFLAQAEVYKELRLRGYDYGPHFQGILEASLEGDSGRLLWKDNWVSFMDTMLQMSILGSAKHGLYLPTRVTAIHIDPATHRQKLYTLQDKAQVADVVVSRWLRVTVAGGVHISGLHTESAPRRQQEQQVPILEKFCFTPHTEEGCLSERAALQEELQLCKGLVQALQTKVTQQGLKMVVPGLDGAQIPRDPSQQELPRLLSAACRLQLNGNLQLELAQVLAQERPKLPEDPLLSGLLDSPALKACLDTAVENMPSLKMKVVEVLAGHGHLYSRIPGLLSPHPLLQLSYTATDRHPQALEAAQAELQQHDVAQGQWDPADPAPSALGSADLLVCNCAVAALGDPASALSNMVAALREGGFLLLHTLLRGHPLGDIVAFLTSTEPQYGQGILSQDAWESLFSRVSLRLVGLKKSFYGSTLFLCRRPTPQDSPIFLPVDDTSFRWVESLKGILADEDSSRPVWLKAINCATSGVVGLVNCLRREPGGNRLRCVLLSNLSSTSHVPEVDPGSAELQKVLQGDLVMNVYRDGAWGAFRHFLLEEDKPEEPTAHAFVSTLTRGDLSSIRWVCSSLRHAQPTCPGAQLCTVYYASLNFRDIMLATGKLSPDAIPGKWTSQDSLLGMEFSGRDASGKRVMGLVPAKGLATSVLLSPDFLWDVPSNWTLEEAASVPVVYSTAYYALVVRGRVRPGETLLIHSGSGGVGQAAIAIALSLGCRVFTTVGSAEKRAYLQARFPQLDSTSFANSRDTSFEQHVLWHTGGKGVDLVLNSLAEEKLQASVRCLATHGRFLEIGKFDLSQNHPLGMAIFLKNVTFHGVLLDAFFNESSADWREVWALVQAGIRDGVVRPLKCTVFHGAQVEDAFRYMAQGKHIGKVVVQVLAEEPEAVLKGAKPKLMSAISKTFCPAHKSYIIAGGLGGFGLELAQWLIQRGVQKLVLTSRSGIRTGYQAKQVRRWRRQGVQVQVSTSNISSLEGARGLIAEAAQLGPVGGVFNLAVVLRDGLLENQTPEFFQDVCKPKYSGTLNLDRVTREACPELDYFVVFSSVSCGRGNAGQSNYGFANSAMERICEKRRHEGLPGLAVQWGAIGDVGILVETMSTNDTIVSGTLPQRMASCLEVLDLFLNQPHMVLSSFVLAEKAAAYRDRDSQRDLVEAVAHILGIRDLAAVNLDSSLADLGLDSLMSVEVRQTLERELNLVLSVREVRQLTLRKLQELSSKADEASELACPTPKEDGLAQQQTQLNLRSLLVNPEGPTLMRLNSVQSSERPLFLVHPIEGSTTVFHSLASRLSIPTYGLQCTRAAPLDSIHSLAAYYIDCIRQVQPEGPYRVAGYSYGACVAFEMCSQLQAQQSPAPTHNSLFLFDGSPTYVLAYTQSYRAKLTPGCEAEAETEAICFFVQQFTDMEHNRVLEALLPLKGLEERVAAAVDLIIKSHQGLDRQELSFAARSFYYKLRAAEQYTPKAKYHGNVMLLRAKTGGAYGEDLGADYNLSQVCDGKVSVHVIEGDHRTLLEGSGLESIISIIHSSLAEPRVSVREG
Cytochrome P450 2D6, sequence (P10635 whole entry): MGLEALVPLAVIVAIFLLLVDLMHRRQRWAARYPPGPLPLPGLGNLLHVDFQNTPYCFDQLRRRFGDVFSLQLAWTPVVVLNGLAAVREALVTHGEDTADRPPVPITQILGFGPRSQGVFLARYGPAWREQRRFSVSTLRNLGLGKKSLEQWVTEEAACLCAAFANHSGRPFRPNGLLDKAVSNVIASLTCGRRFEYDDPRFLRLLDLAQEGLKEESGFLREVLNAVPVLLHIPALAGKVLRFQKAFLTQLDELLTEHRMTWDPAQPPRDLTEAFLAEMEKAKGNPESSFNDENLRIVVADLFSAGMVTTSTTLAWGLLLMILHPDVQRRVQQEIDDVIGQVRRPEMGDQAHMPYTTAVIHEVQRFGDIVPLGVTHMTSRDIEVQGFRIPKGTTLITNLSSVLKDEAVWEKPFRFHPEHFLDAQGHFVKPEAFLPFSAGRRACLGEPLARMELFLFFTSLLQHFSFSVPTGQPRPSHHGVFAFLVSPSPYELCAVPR
Mu-type opioid receptor, sequence (P35372 whole entry): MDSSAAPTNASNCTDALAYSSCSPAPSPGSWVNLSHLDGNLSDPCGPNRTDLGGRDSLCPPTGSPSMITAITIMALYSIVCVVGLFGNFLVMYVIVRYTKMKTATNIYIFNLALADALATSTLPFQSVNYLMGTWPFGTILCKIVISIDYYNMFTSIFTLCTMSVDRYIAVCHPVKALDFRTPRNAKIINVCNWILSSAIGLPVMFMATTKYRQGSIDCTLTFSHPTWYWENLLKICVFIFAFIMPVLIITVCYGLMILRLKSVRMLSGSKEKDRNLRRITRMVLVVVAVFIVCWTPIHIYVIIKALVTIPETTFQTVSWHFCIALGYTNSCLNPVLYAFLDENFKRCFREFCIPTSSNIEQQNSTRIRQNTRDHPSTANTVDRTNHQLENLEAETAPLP
Adenosylmethionine-8-amino-7-oxononanoate aminotransferase, sequence (P9WQ81 whole entry): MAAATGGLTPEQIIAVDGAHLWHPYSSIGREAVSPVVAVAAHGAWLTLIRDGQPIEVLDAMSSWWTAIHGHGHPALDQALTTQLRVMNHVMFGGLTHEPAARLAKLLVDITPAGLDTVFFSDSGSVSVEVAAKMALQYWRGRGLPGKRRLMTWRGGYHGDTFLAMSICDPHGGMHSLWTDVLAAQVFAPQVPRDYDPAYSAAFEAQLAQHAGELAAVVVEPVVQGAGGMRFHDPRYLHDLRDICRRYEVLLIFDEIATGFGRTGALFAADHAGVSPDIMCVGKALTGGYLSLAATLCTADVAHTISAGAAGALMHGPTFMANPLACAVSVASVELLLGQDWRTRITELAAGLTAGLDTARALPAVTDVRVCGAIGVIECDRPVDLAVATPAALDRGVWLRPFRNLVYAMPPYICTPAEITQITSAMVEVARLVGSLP
Neurotensin receptor type 1, sequence (P30989 whole entry): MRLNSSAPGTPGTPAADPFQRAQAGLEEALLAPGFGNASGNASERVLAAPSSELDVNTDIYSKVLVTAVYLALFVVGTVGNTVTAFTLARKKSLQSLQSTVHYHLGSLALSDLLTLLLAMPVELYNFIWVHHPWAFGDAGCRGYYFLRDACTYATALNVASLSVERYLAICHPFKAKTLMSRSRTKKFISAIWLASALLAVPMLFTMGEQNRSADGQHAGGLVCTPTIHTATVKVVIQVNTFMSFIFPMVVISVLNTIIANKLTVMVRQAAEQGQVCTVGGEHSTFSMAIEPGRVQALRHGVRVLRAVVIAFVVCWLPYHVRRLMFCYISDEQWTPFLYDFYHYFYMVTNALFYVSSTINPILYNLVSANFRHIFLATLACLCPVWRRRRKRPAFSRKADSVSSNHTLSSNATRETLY
Cytochrome P450 3A4, sequence (P08684 whole entry): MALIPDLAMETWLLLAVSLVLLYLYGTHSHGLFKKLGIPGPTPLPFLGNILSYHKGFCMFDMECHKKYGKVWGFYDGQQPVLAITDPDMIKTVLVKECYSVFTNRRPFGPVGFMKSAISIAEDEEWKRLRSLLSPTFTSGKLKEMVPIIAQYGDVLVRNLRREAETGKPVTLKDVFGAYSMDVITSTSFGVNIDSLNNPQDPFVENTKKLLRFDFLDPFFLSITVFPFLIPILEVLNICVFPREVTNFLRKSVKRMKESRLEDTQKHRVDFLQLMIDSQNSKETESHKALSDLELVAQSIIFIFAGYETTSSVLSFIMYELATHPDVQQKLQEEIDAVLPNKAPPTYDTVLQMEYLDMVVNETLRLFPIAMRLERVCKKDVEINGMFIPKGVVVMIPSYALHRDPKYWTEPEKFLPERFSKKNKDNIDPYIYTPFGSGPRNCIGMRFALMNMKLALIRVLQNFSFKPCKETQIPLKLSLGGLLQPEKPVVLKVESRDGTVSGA

SMILES: CCCCCC/C=N/Nc1nnc(Cc2ccc(OC)c(OC)c2)c(O)n1
- AC50 [1]: 132 µM (active)

SMILES: Cc1ccc(Cc2c(C)nc3nc(SCC(=O)NCc4ccco4)nn3c2C)cc1
- AC50 [2]: 4.86 µM (active)
- AC50 (Cytochrome P450 2D6): 25.1 µM (inconclusive)
- AC50 (Cytochrome P450 1A2): 0.00631 µM (inconclusive)
- AC50 (Cytochrome P450 3A4): 3.16 µM (inconclusive)

SMILES: O=[N+]([O-])c1ccc2ncnc(N3CCN(Cc4ccc5c(c4)OCO5)CC3)c2c1
- AC50 (HEK293): 5.4 µM (active)
- AC50 [3]: 2.73 µM (active)
- AC50 [4]: 35.6 µM (active)
- AC50 [5]: 26.5 µM (active)
- EC50 (Mu-type opioid receptor): 92.5 µM (inactive)
- IC50 (Fatty acid synthase [6]): 1.39 µM (active)
- EC50 [7]: 3.78 µM (active)
- IC50 (Interleukin-8 [8]): 40.4 µM (inactive)
- IC50 (Interleukin-8 [9]): 47.9 µM (inactive)
- IC50 (Fatty acid synthase [10]): 0.843 µM (active)

SMILES: Cn1ccnc1Sc1cc(NCCCO)c([N+](=O)[O-])c2nonc12
- EC50 [11]: 11.8 µM (active)
- EC50 [12]: 13.2 µM (active)
- AC50 [13]: 8.37 µM (active)
- EC50 (Protein RecA): 3.32 µM (active)
- IC50 [14]: 5.86 µM (active)
- IC50 (Beta Lactamase): 18.2 µM (inactive)

— ChEMBL document CHEMBL1201862, “PubChem BioAssay data set” (2004)
